From US20210206770A1, “Co-Crystal of an Orally Available Janus Kinase Inhibitor” (Sandoz AG, priority 2017, published 2021)

What was measured:
[1] = Dissolution testing, Experiment 1: stirring in water at room temperature; assay type: physicochemical; details: 5 mg Form A or same molar amount of co-crystal stirred at room temperature in 100 ml water
From the text: Experiment 1 clearly indicated significant and faster dissolution of the barcitinib lactic acid co-crystal of the invention compared to pure cristallin baritinib form A. However, no quantitative data could be derived from this setup.

[2] = Differential scanning calorimetry (thermal stability); assay type: physicochemical; details: heating rate 10 K/min, up to melting at about 168-170° C.
Protocol: The baricitinib lactic acid co-crystal according to the present invention was investigated by DSC, which was performed with a DSC 7 (Perkin-Elmer, Norwalk, Conn., USA) using a Pyris 2.0 software. Approximately 4±0.0005 mg sample (using a UM3 ultramicrobalance, Mettler, Greifensee, CH) were weighed into Al-Pans (25 μl) and sealed with a cover, which was perforated by a needle. Dry nitrogen was used as the purge gas (purge: 20 ml/min). Heating rate: 10 K/min.

[3] = Dissolution testing, Experiment 2: photometric (310 nm) dissolution in phosphate buffer pH 6.8; assay type: physicochemical; details: 50 mL phosphate buffer pH 6.8, 0.01% Tween 80, 37° C.
Protocol: We used this to quantify baricitinib concentrations. Light absorption was measured with a Shimadzu UV-1800 double beam photometer at 310 nm in a lcm quartz glass cuvette.
To counterbalance the acidifying effect of the lactic acid from the barcitinib lactic acid co-crystal, the experiments were performed in a phosphate buffer solution at a constant pH of 6.8 ([…]; 0.01 mol/L). Furthermore, 0.01% Tween 80 was added to the buffer solution in order to avoid potential agglomeration during the dissolution test.
Experiment 2: 20 mg of crystalline baricitinib free base Form A or 24.85 mg of the baricitinib lactic acid co-crystal of the present invention were stirred in a closed vessel in 50 mL of the buffer solution at 37° C. After 1, 5, 10, 15, 20, 30, 45 and 75 minutes filtered samples of the suspension were taken and diluted 1:4 with buffer solution to reach an absorption value within the calibration curve.

[4] = EPAR, cited from earlier work

concentration of dissolved baricitinib at 1 minute compared to baricitinib free base form A ([3]; 1 minute)	dissolution rate compared to baricitinib free base form A ([3]; FIG. 7)	Compound	dissolution in water [1]	thermal stability (DSC) [2]	solubility in 0.1 N HCl ([4]; 0.1 N HCl)	solubility in water ([4]; water)
		CCS(=O)(=O)N1CC(CC#N)(n2cc(-c3ncnc4[nH]ccc34)cn2)C1 [baricitinib free base Form A, 2-[1-(Ethylsulfonyl)-3-[4-(7H-pyrrolo[2,3-d]pyrimidin-4-yl)-1H-pyrazol-1-yl]azetidin-3-yl]acetonitrile, reference compound]	no detectable dissolution			
three time higher	dissolved more quickly	CCS(=O)(=O)N1CC(CC#N)(n2cc(-c3ncnc4[nH]ccc34)cn2)C1 [baricitinib lactic acid co-crystal]	a detectable and significant amount dissolved within minutes	neither phase changes nor desolvation events are detectable until the sample melts		
		CCS(=O)(=O)N1CC(CC#N)(n2cc(-c3ncnc4[nH]ccc34)cn2)C1 [baricitinib, 2-[1-(Ethylsulfonyl)-3-[4-(7H-pyrrolo[2,3-d]pyrimidin-4-yl)-1H-pyrazol-1-yl]azetidin-3-yl]acetonitrile]			only slightly soluble	practically insoluble
